Measurements reported in the NIST ThermoML archive (doi:10.1021/je900600c).

Tests used:
[1] = 101 kPa, Liquid; for electrical conductivity: Frequency=0.0005 MHz, crison conductivimeter
[2] = xn = mol fraction of the nth substance listed; conditions: 101 kPa, Liquid; for electrical conductivity: Frequency=0.0005 MHz, crison conductivimeter

CCCCn1cc[n+](C)c1.F[B-](F)(F)F [1-butyl-3-methylimidazolium tetrafluoroborate]
[1]
Conditions	electrical conductivity [S/m]	viscosity [mPa·s]
288.15 K	–	173.5
298.15 K	0.352	99.2
308.15 K	–	61.3
318.15 K	–	40.4

CCn1cc[n+](C)c1.F[B-](F)(F)F [1-ethyl-3-methylimidazolium tetrafluoroborate]
[1]
Conditions	electrical conductivity [S/m]	viscosity [mPa·s]
288.15 K	–	55.5
298.15 K	1.63	36.9
308.15 K	–	26
318.15 K	–	19.17

CCn1cc[n+](C)c1.F[B-](F)(F)F [1-ethyl-3-methylimidazolium tetrafluoroborate] + O
[2]
Conditions	electrical conductivity [S/m]	viscosity [mPa·s]
288.15 K, x2 = 0	–	55.5
288.15 K, x2 = 0.0985	–	36.2
288.15 K, x2 = 0.2191	–	23.88
288.15 K, x2 = 0.3053	–	18.26
288.15 K, x2 = 0.3982	–	13.26
288.15 K, x2 = 0.4916	–	10.29
288.15 K, x2 = 0.4933	4	–
288.15 K, x2 = 0.5989	–	7.28
288.15 K, x2 = 0.6991	–	5.43
288.15 K, x2 = 0.8029	–	3.18
288.15 K, x2 = 0.8991	–	2.32
298.15 K, x2 = 0	1.63	36.9
298.15 K, x2 = 0.0985	–	25.2
298.15 K, x2 = 0.2191	–	16.66
298.15 K, x2 = 0.3053	–	13.51
298.15 K, x2 = 0.3665	4.1	–
298.15 K, x2 = 0.3982	–	10.02
298.15 K, x2 = 0.4916	–	7.91
298.15 K, x2 = 0.4933	5.26	–
298.15 K, x2 = 0.5498	6.07	–
298.15 K, x2 = 0.5989	–	5.62
298.15 K, x2 = 0.6599	7.64	–
298.15 K, x2 = 0.6991	–	4.23
298.15 K, x2 = 0.7332	8.15	–
298.15 K, x2 = 0.7856	8.44	–
298.15 K, x2 = 0.8029	–	2.5
298.15 K, x2 = 0.8249	8.52	–
298.15 K, x2 = 0.8555	8.47	–
298.15 K, x2 = 0.8799	8.36	–
298.15 K, x2 = 0.8991	–	1.82
298.15 K, x2 = 0.8999	8.18	–
298.15 K, x2 = 0.9166	7.9	–
298.15 K, x2 = 0.9307	7.43	–
298.15 K, x2 = 0.9428	7.1	–
298.15 K, x2 = 0.9533	6.56	–
298.15 K, x2 = 0.9625	6.13	–
298.15 K, x2 = 0.9706	5.43	–
298.15 K, x2 = 0.9778	4.76	–
298.15 K, x2 = 0.9842	4.03	–
298.15 K, x2 = 0.99	2.95	–
298.15 K, x2 = 0.9952	1.79	–
308.15 K, x2 = 0	–	26
308.15 K, x2 = 0.0985	–	18.45
308.15 K, x2 = 0.2191	–	12.64
308.15 K, x2 = 0.3053	–	10.39
308.15 K, x2 = 0.3982	–	7.85
308.15 K, x2 = 0.4916	–	6.26
308.15 K, x2 = 0.4933	5.9	–
308.15 K, x2 = 0.5989	–	4.49
308.15 K, x2 = 0.6991	–	3.4
308.15 K, x2 = 0.8029	–	2.03
308.15 K, x2 = 0.8991	–	1.477
318.15 K, x2 = 0	–	19.17
318.15 K, x2 = 0.0985	–	14.01
318.15 K, x2 = 0.2191	–	9.9
318.15 K, x2 = 0.3053	–	8.23
318.15 K, x2 = 0.3982	–	6.33
318.15 K, x2 = 0.4916	–	5.09
318.15 K, x2 = 0.4933	6.95	–
318.15 K, x2 = 0.5989	–	3.68
318.15 K, x2 = 0.6991	–	2.81
318.15 K, x2 = 0.8029	–	1.696
318.15 K, x2 = 0.8991	–	1.2

CCCCCCn1cc[n+](C)c1.F[B-](F)(F)F [1-hexyl-3-methylimidazolium tetrafluoroborate]
[1]
Conditions	electrical conductivity [S/m]	viscosity [mPa·s]
288.15 K	–	357.5
298.15 K	0.126	190.9
308.15 K	–	110.3
318.15 K	–	68.5

CCCCCCn1cc[n+](C)c1.F[B-](F)(F)F [1-hexyl-3-methylimidazolium tetrafluoroborate] + O
[2]
Conditions	electrical conductivity [S/m]	viscosity [mPa·s]
288.15 K, x2 = 0	–	357.5
288.15 K, x2 = 0.1101	–	200.6
288.15 K, x2 = 0.1679	–	151
288.15 K, x2 = 0.2812	–	100.3
288.15 K, x2 = 0.3581	–	65.4
288.15 K, x2 = 0.4907	0.625	–
288.15 K, x2 = 0.4987	–	38.7
288.15 K, x2 = 0.5075	–	36.4
288.15 K, x2 = 0.573	–	29.4
288.15 K, x2 = 0.72	–	17.55
298.15 K, x2 = 0	0.126	190.9
298.15 K, x2 = 0.1101	–	113.9
298.15 K, x2 = 0.1164	0.202	–
298.15 K, x2 = 0.1679	–	89.1
298.15 K, x2 = 0.2364	0.337	–
298.15 K, x2 = 0.2812	–	61.6
298.15 K, x2 = 0.3232	0.484	–
298.15 K, x2 = 0.3581	–	41.6
298.15 K, x2 = 0.3942	0.627	–
298.15 K, x2 = 0.4548	0.798	–
298.15 K, x2 = 0.4907	0.983	–
298.15 K, x2 = 0.4987	–	25.5
298.15 K, x2 = 0.5075	–	24
298.15 K, x2 = 0.5294	1.06	–
298.15 K, x2 = 0.573	–	19.6
298.15 K, x2 = 0.5896	1.31	–
298.15 K, x2 = 0.652	1.62	–
298.15 K, x2 = 0.7184	1.99	–
298.15 K, x2 = 0.72	–	10.82
308.15 K, x2 = 0	–	110.3
308.15 K, x2 = 0.1101	–	69.4
308.15 K, x2 = 0.1679	–	56.2
308.15 K, x2 = 0.2812	–	40.3
308.15 K, x2 = 0.3581	–	28.1
308.15 K, x2 = 0.4907	1.38	–
308.15 K, x2 = 0.4987	–	17.72
308.15 K, x2 = 0.5075	–	16.76
308.15 K, x2 = 0.573	–	13.83
308.15 K, x2 = 0.72	–	7.76
318.15 K, x2 = 0	–	68.5
318.15 K, x2 = 0.1101	–	45.1
318.15 K, x2 = 0.1679	–	37.5
318.15 K, x2 = 0.2812	–	27.8
318.15 K, x2 = 0.3581	–	19.89
318.15 K, x2 = 0.4907	1.65	–
318.15 K, x2 = 0.4987	–	12.92
318.15 K, x2 = 0.5075	–	12.25
318.15 K, x2 = 0.573	–	10.19
318.15 K, x2 = 0.72	–	5.85

O [water]
[1]
Conditions	viscosity [mPa·s]
288.15 K	1.137
298.15 K	0.89
308.15 K	0.719
318.15 K	0.597

O [water] + CCn1cc[n+](C)c1.F[B-](F)(F)F
[2], x1 = 1
Conditions	viscosity [mPa·s]
288.15 K	1.137
298.15 K	0.89
308.15 K	0.719
318.15 K	0.597
